Reference: ChEMBL document CHEMBL4665751, “Discovery of Clinical Candidate (5-(3-(4-Chlorophenoxy)prop-1-yn-1-yl)-3-hydroxypicolinoyl)glycine, an Orally Bioavailable Prolyl Hydroxylase Inhibitor for the Treatment of Anemia” (J Med Chem, 2020)
The source made the active and inactive calls. The calls are words filed in the database; no cut-off is given here.

How the values were obtained:
[1] = Genotoxicity in Salmonella typhimurium TA98 at 62.5 to 1000 ug incubated for 48 to 50 hrs in absence of S9 fraction by Ames test; format: toxicity, Salmonella enterica subsp. enterica serovar Typhimurium; settings: in vivo; dose 62.5-1000 µg, time 48-50 hrs
[2] = AUC (0 to t) in Beagle dog at 0.5 mg/kg, iv by LC-MS/MS analysis; format: ADME, organism-based, Canis lupus familiaris; design: dose 0.5 mg/kg; settings: in vivo
[3] = Genotoxicity in Salmonella typhimurium TA98 at 62.5 to 1000 ug incubated for 48 to 50 hrs in presence of S9 fraction by Ames test; format: toxicity, subcellular, Salmonella enterica subsp. enterica serovar Typhimurium; settings: dose 62.5-1000 µg, time 48-50 hrs
[4] = Hepatotoxicity in male Sprague-Dawley rat assessed as change in albumin/globulin ratio at 15 to 200 mg/kg, po administered every alternate days for 2 weeks measured on day 14; format: toxicity, organism-based; settings: in vivo, 336 h, dose 15-200 mg/kg, time 14 day
[5] = Nephrotoxicity in Sprague-Dawley rat assessed as change in creatinine level in blood at 15 to 200 mg/kg, po administered every alternate days for 2 weeks measured on day 14; format: toxicity, organism-based; settings: in vivo, 336 h, dose 15-200 mg/kg, time 14 day
[6] = Acute toxicity in male Sprague-Dawley rat assessed as change in ratio of epididymis to body weight at 15 to 200 mg/kg, po administered every alternate days for 2 weeks measured on day 14; format: organism-based; settings: in vivo, 336 h, dose 15-200 mg/kg, time 14 day
[7] = Acute toxicity in female Sprague-Dawley rat assessed as change in ratio of uterus with cervix to body weight at 15 to 200 mg/kg, po administered every alternate days for 2 weeks measured on day 14; format: organism-based; settings: in vivo, 336 h, dose 15-200 mg/kg, time 14 day
[8] = Acute toxicity in Sprague-Dawley rat assessed as change in ratio of thymus to body weight at 15 to 200 mg/kg, po administered every alternate days for 2 weeks measured on day 14; format: organism-based; settings: in vivo, 336 h, dose 15-200 mg/kg, time 14 day
[9] = Acute toxicity in Sprague-Dawley rat assessed as change in ratio of liver to body weight at 15 to 200 mg/kg, po administered every alternate days for 2 weeks measured on day 14; format: organism-based; settings: in vivo, 336 h, dose 15-200 mg/kg, time 14 day
[10] = Acute toxicity in Sprague-Dawley rat assessed as change in body weight at 15 to 200 mg/kg, po administered every alternate days for 14 days; format: organism-based; settings: in vivo, 336 h, dose 15-200 mg/kg, time 14 day
[11] = Acute toxicity in Sprague-Dawley rat assessed as effect on food intake at 15 to 200 mg/kg, po administered every alternate day for 14 day; format: organism-based; settings: in vivo, 336 h, dose 15-200 mg/kg
Mus musculus [12] = experiment: Antianemic activity in cisplatin-induced C57BL/6 mouse anemia model assessed as increase in haemoglobin level administered orally every other day for 1 month; format: functional, organism-based; settings: dose mg/kg 10-25, time 1.0 months
Cytochrome P450 3A4 [13] = target: T1, Cytochrome P450 3A4 (Homo sapiens, UniProt P08684); experiment: Inhibition of CYP3A4 (unknown origin) using midazolam as substrate preincubated for 5 mins followed by addition of NADPH measured after 20 mins by LC-MS/MS analysis; format: ADME
Cytochrome P450 3A4 [14] = target: T1, Cytochrome P450 3A4; experiment: Inhibition of CYP3A4 (unknown origin) using testosterone as substrate preincubated for 5 mins followed by addition of NADPH measured after 20 mins by LC-MS/MS analysis; format: ADME
Cytochrome P450 2C9 = Cytochrome P450 2C9 (Homo sapiens, UniProt P11712); experiment: Inhibition of CYP2C9 (unknown origin) using diclofenac as substrate preincubated for 5 mins followed by addition of NADPH measured after 20 mins by LC-MS/MS analysis; format: ADME
[15] = Half-life in rat hepatocytes at 100 uM incubated up to 120 mins by LC-MS/MS analysis; format: ADME, cell-based, Hepatocyte
[16] = Half-life in mouse hepatocytes at 100 uM incubated up to 120 mins by LC-MS/MS analysis; format: ADME, cell-based, Hepatocyte
[17] = Half-life in monkey liver microsome at 1 uM preincubated for 5 mins followed by NADPH addition measured up to 120 mins by LC-MS/MS analysis; format: ADME, Macaca mulatta; settings: rhesus monkey, liver microsomes, time <=125 min
[18] = Half-life in dog liver microsome at 1 uM preincubated for 5 mins followed by NADPH addition measured up to 120 mins by LC-MS/MS analysis; format: ADME, Canis lupus familiaris; settings: liver microsomes, time <=125 min
[19] = Apparent volume of distribution in Beagle dog at 0.5 mg/kg, iv by LC-MS/MS analysis; format: ADME, organism-based, Canis lupus familiaris; settings: in vivo, read-out: Vz
[20] = Oral bioavailability in Beagle dog at 2 mg/kg by LC-MS/MS analysis; format: ADME, organism-based, Canis lupus familiaris; settings: in vivo
[21] = Clearance in Beagle dog at 2 mg/kg, ig by LC-MS/MS analysis; format: ADME, organism-based, Canis lupus familiaris; settings: in vivo, po
[22] = Half-life in Beagle dog at 2 mg/kg, ig by LC-MS/MS analysis; format: ADME, organism-based, Canis lupus familiaris; settings: in vivo, po
[23] = Cmax in Beagle dog at 2 mg/kg, ig by LC-MS/MS analysis; format: ADME, organism-based, Canis lupus familiaris; design: route […], dose 2 mg/kg; settings: in vivo, po
[24] = Half-life in Sprague-Dawley rat at 1 mg/kg, iv by LC-MS/MS analysis; format: ADME, organism-based; settings: in vivo
[25] = Clearance in Sprague-Dawley rat at 1 mg/kg, iv by LC-MS/MS analysis; format: ADME, organism-based; settings: in vivo
[26] = AUC (0 to infinity) in Sprague-Dawley rat at 1 mg/kg, iv by LC-MS/MS analysis; format: ADME, organism-based; design: time infinity, route intravenous, dose 1 mg/kg; settings: in vivo
[27] = Oral bioavailability in Sprague-Dawley rat at 2 mg/kg by LC-MS/MS analysis; format: ADME, organism-based; settings: in vivo
[28] = Clearance in Sprague-Dawley rat at 2 mg/kg, ig by LC-MS/MS analysis; format: ADME, organism-based; settings: in vivo, po
[29] = AUC (0 to t) in Sprague-Dawley rat at 2 mg/kg, ig by LC-MS/MS analysis; format: ADME, organism-based; design: dose 2 mg/kg; settings: in vivo, po
[30] = Tmax in Sprague-Dawley rat at 2 mg/kg, ig by LC-MS/MS analysis; format: ADME, organism-based; settings: in vivo, po
Mus musculus [31] = experiment: In vivo inhibition of PHD2 in po dosed C57BL/6 mouse assessed as upregulation of EPO plasma level administered 4 times for 3 days by ELISA; format: functional, organism-based; settings: dose mg/kg 5-50, time 3.0 day
Egl nine homolog 1 [32] = target: T2, Egl nine homolog 1 (Homo sapiens, UniProt Q9GZT9); experiment: Inhibition of PHD2 in human Hep3B cells assessed as increase in EPO expression measured after 24 hrs by ELISA; format: cell-based; settings: dose microM 5-50, time 24.0 hrs
Target sequence in this assay (Q9GZT9 2-426 limits assumed): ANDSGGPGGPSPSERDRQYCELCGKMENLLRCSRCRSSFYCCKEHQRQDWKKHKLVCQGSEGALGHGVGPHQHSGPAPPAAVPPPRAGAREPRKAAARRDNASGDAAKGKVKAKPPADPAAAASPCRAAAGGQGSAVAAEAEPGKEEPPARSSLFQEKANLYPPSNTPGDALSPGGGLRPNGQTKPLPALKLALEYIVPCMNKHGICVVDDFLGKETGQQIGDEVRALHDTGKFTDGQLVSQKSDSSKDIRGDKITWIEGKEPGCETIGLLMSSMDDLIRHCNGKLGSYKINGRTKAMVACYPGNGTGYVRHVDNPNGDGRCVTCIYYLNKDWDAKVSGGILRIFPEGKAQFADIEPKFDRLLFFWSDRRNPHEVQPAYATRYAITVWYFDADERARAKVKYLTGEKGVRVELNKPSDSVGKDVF

Egl nine homolog 1 [33] = target: T2, Egl nine homolog 1; experiment: Inhibition of PHD2 in human MCF7 cells assessed as upregulation of HIFalpha expression at 50 uM incubated for 24 hrs by firefly/renilla luciferase reporter gene assay relative to control; format: cell-based
Target sequence in this assay (Q9GZT9 2-426 limits assumed): as above

HUVEC = experiment: Cytotoxicity against human HUVEC cells assessed as reduction in cell viability at 10 to 100 uM incubated for 72 hrs by MTT assay; format: cell-based; settings: dose 10-100 µM
Homo sapiens [34] = species: Homo sapiens; experiment: Selectivity index, ratio of IC50 for KDM4A (unknown origin) in presence of peptide substrate incubated for 30 mins by alpha screen assay to IC50 for PHD2 (unknown origin) by O-phenyl enediamine(OPD) based fluorescence assay
Homo sapiens [35] = species: Homo sapiens; experiment: Selectivity index, ratio of IC50 for KDM3A (unknown origin) in presence of peptide substrate incubated for 30 mins by alpha screen assay to IC50 for PHD2 (unknown origin) by O-phenyl enediamine(OPD) based fluorescence assay
Egl nine homolog 1 [36] = target: T2, Egl nine homolog 1; experiment: Inhibition of FITC-HIF1alpha (556 to 574 residues) binding to PHD2 (181 to 426 residues) (unknown origin) by fluorescence polarization assay
Target sequence in this assay (Q9GZT9 whole entry): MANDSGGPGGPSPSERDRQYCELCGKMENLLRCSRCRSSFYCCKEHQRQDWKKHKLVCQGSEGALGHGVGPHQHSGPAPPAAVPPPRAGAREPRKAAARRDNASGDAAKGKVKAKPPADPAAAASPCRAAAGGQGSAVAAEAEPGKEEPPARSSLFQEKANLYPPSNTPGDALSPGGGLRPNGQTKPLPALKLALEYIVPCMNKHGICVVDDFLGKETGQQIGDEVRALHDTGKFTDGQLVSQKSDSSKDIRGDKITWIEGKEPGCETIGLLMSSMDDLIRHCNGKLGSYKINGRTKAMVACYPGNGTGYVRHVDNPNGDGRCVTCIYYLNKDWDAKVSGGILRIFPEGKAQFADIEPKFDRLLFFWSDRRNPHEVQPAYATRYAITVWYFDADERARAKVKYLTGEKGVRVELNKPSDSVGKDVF

T1 sequence (P08684 whole entry): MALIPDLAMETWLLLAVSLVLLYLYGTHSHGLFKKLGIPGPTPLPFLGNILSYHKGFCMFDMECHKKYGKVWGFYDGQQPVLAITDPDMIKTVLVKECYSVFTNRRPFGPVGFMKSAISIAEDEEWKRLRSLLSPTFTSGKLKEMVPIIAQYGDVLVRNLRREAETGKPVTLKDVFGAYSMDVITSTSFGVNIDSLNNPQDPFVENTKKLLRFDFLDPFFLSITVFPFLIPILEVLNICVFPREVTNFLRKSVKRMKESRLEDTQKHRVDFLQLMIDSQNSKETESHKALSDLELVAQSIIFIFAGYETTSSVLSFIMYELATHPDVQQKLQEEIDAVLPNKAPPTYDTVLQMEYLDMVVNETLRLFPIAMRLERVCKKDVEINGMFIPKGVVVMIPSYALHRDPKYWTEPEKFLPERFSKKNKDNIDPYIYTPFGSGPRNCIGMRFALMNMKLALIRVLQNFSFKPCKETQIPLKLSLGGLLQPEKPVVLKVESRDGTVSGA
Cytochrome P450 2C9, sequence (P11712 whole entry): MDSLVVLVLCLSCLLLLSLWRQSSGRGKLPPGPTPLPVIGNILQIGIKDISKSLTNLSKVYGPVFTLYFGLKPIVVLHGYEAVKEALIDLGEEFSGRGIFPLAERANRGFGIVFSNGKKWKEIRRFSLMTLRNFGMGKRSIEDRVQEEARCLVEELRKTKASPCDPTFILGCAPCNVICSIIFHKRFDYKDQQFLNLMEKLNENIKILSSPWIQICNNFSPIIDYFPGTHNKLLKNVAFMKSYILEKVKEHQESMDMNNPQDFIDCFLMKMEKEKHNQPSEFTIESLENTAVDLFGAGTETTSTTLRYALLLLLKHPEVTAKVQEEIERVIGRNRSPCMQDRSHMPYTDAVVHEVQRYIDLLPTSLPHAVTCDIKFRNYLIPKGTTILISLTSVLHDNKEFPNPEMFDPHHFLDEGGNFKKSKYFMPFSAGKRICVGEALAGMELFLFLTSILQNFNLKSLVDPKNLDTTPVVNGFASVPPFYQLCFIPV

What does the source list for O=C(O)CNC(=O)c1ncc(C#CCOc2ccc(Cl)cc2)cc1O [DDO-3055]?
Activity [1]: Non-Toxic; AUC(0-t) [2]: 611 ng·h/mL; Activity [3]: Non-Toxic; Activity [4]: Non-Toxic; Activity [5]: Non-Toxic; Activity [6]: Non-Toxic; Activity [7]: Non-Toxic; Activity [8]: Non-Toxic; Activity [9]: Non-Toxic; Activity [10]: Non-Toxic; Activity [11]: Non-Toxic; Activity (Mus musculus [12]): Active; IC50 (Cytochrome P450 3A4 [13]): > 30 µM; IC50 (Cytochrome P450 3A4 [14]): > 30 µM; IC50 (Cytochrome P450 2C9): > 30 µM; half-life at 100 µM [15]: 0.538 h; half-life at 100 µM [16]: 8.68 min; half-life at 1 µM [17]: > 1.65 h; half-life at 1 µM [18]: > 2.32 h; Vd [19]: 3.34 L/kg; bioavailability [20]: 54%; CL/F [21]: 25.5 mL/min/kg; half-life [22]: 4.19 h; Cmax [23]: 735 ng/mL; half-life [24]: 8.43 h; clearance [25]: 3.44 mL/min/kg; AUC(0-inf) [26]: 4860 ng·h/mL; bioavailability [27]: 55.7%; CL/F [28]: 7.3 mL/min/kg; AUC(0-t) [29]: 4800 ng·h/mL; Tmax [30]: 0.63 h; inhibition (Mus musculus [31]): Dose-dependent effect; inhibition (Egl nine homolog 1 [32]): Dose-dependent effect; fold change (FC) (Egl nine homolog 1 [33]): 7; Activity (HUVEC): Non-Toxic; Ratio IC50 (Homo sapiens [34]): 1560; Ratio IC50 (Homo sapiens [35]): > 1560; IC50 (Egl nine homolog 1 [36]): 0.0642 µM
